Results reported in US20250041309A1 (ZHENAO JINYINHUA PHARMACEUTICAL, priority 2021, published 2025).
Where a name gives a salt, the structure may show the parent alone.

Key:
[1] = pH measurement of Aildenafil salts dissolved in water; type: physicochemical; details: for 2 mg/ml pH value: 2 mg/ml in water; for 10 mg/ml pH value: 10 mg/ml in water
[2] = Sterilization stability test of aqueous solutions (121° C., 30 minutes, HPLC relevant substances); details: 0.5 mg/ml aqueous solution; for Conclusion (sterilization stability) / Relevant substances after sterilization: sterilized at 121° C. for 30 minutes
Procedure: They were sterilized in a 121° C. sterilizer for 30 minutes, and sampled before and after sterilization. The relevant substances were measured according to the following method:
Relevant substances: taking the samples and dissolving it in the mobile phase to prepare a solution containing 0.5 mg per 1 ml, which was used as the test solution; using octadecylsilane bonded silica gel as the filler, phosphate buffer (800 ml of water, 7 ml of triethylamine added, pH adjusted to 3.0 with phosphoric acid, diluted to 1000 ml with water)-methanol acetonitrile (58:25:17) as the mobile phase, with a detection wavelength of 290 nm.

[3] = Saturation solubility of Aildenafil salts in water at room temperature; type: physicochemical
MCAO rats [4] = experiment: Forelimb placement test in MCAO rats, injection of Aildenafil phosphate (Example 24); type: in vivo; details: x ± sD, n = 7
Procedure: (§1) • ? Animal selection: healthy SD rats were used as experimental animals. In order to eliminate the impact of individual animal variations on the results, 10 rats were used in each group. […] After 2 hours of cerebral ischemia-reperfusion, the drug was immediately injected into the tail vein for consecutive 7 days.
(§2) On the day of the experiment, the rat was anesthetized with isoflurane gas and fixed in a supine position. The skin was cut along the midline of the neck to expose the right arteriae carotis communis. The nerves and fascia around the blood vessels from the common carotid artery bifurcation to the base of the skull were carefully removed, and the external and internal carotid arteries were separated sequentially. A MCAO suture (250-280 g) was inserted from the free end of the external carotid artery, and the nylon suture was introduced into the internal carotid artery from the distal end of the external carotid artery. It was inserted into the middle cerebral artery in the Willis ring to effectively block the middle cerebral artery. The length of the inserted suture was 18-20 mm away from the bifurcation of the common carotid artery. Then the free end of the external carotid artery was ligated along with intracavity suture to prevent bleeding. The subcutaneous fascia and skin were sutured layer by layer, and penicillin was locally added dropwise to prevent infection. The Sham group only isolated the internal carotid artery. 2 hours after the start of MCAO, the suture was carefully removed from the lumen of the internal carotid artery to allow for reperfusion of the internal carotid artery. Animals were kept in cages. • ? Y Grouping and administration
(§3) The rats successfully modeled with a neurological function score of 8-12 were randomly divided into four groups based on the score: model control group, low-dose 2.5 mg/kg group of test drug, medium dose 5 mg/kg group of test drug, and high-dose 10 mg/kg group of test drug, with 7 rats in each group. […] Immediately after cerebral ischemia-reperfusion for 2 hours, the drug was administered via tail vein injection for consecutive 7 days. The endpoint of the experiment is 14 days after the first administration. Please see Table 7 for details.
(§4) Balance beam and forelimb placement tests were performed after 7 and 14 days administration, respectively.

MCAO rats [5] = experiment: Balance beam test in MCAO rats, injection of Aildenafil phosphate (Example 24); type: in vivo; details: x ± sD, n = 7
Procedure: as §1, §2, §3, §4

MCAO rats [6] = experiment: Cerebral infarction range (TTC) in MCAO rats, injection of Aildenafil phosphate (Example 24); type: in vivo, SD rats; details: 14 days; for Improvement rate % of cerebral infarction range: versus model control group; for Infarct size (%): x ± sD, n = 7
Procedure: as §1, §2, §3
After 14 days of medication, rats were anesthetized with isoflurane gas to collect blood and euthanized by cervical vertebrae dislocation. The brain tissue was taken and placed in a −20° C. freezer for freezing, and was sliced from front to back, each slice has a thickness of 2 mm. Brain tissue slices were incubated in a 2% red tetrazolium (TTC) solution at 37° C. for 5 minutes. […] Image J software was used to measure the area of cerebral infarction and the percentage of infarct area to the total brain area was calculated.

[7] = tested on: ischemic stroke model rats; experiment: Neurological function (behavioral) score, ischemic stroke model rats, intravenous administration (Example 22); type: in vivo, SD rats; design: scale not given here; details: 10 mg/kg iv qd 7 d, x ± s, n = 10
From the text: (§5) On the day of the experiment, the rat was anesthetized with isoflurane gas and placed in a supine position for fixation. The skin was cut along the midline of the neck to expose the right common carotid artery. The nerves and fascia around the blood vessels from the common carotid artery bifurcation to the base of the skull were carefully removed, and the external and internal carotid arteries were separated sequentially. The MCAO suture was inserted from the free end of the external carotid artery, and the nylon suture was introduced into the internal carotid artery from the distal end of the external carotid artery. It was inserted into the Willis ring of the middle cerebral artery to effectively block the middle cerebral artery. The length of the inserted suture was 18-20 mm away from the bifurcation of the common carotid artery. Then the free end of the external carotid artery was ligated along with the endovascular suture to prevent bleeding. […] Animals were kept in cages. After 2 hours of embolization, then reperfusion, according to the scoring criteria in the attached table, the degree of neurological damage in the animals was scored using a blind method. Those with significant neurological deficits (>8 points) were considered successful in modeling. • ? Grouping and administration The animals successfully modeled were randomly divided into three groups based on their scores, namely the model control group, compound 1 AD group ([…] citrate group) 10 mg/kg, and compound 2 XD group (Sildenafil citrate group) 10 mg/kg, with 10 animals in each group. […] The endpoint of the experiment was 14 days after administration, and the dosage is detailed in the table below. This experiment was administered intravenously with a dosage of 10 mg/kg and a volume of 5 mL/kg, once per day for consecutive 7 days. Score before treatment, 3 days after treatment, 7 days after treatment, and 14 days after treatment.

[8] = tested on: ischemic stroke model rats; experiment: Cerebral infarction range (TTC), ischemic stroke model rats, intravenous administration (Example 22); type: in vivo, SD rats; details: 10 mg/kg iv qd 7 d
From the text: as §5, with “cages.” for “cages. After 2 hours of embolization, then reperfusion, according to the scoring criteria in the attached table, the degree of neurological damage in the animals was scored using a blind method. Those with significant neurological deficits (>8 points) were considered successful in modeling. • ? Grouping and administration”, “At the end of the experiment, the brain tissue of the rats was collected by bloodletting” for “Score before treatment, 3 days after treatment, 7 days after treatment,”, “frozen in a -20° C. freezer, then are sliced with a thickness of 2 mm per slice. The brain tissue slices were placed in a 2% red tetrazolium (TTC) solution and incubated at 37° C. for 5 minutes. The infarcted tissue appeared white, while the non-infarcted tissue appeared red.” for “14 days after treatment.”

MCAO rats [9] = experiment: Cerebral infarction range (TTC) in MCAO rats, oral administration (Example 23); type: in vivo, SD rats; details: gavage 8 mg/kg*2, after 14 days
Procedure: Administration route: gavage administration;
Dosage: 8 mg/kg body weight, twice a day;
Administration time: gavage administration twice a day in the morning and evening (administered immediately after modeling).
A rat model of middle cerebral artery ischemia/reperfusion (MCAO/R) was created using suture-occluded method.
The successfully modeled rats were randomly divided into 4 groups based on their scores, with an average of 20 rats in each group.
At the end of the experiment, the brain tissue of the rats was collected by bloodletting and frozen in a −20° C. freezer, and then is sliced into a thickness of 2 mm per slice. The brain tissue slices were placed in a 2% red tetrazolium (TTC) solution and incubated at 37° C. for 5 minutes. The infarcted tissue appeared white, while the non-infarcted tissue appeared red. Image J software was used to measure the area of cerebral infarction and the percentage of infarct area to the total brain area was calculated.

[10] = 5 mg/kg iv qd 7 d (medium dose)

CCCc1nn(C)c2c(=O)[nH]c(-c3cc(S(=O)(=O)N4C[C@@H](C)N[C@@H](C)C4)ccc3OCC)nc12 [Aildenafil DL-tartrate]
2 mg/ml pH value [1]: 3.90
10 mg/ml pH value [1]: 3.57

CCCc1nn(C)c2c(=O)[nH]c(-c3cc(S(=O)(=O)N4C[C@@H](C)N[C@@H](C)C4)ccc3OCC)nc12 [Aildenafil phosphate]
Relevant substances before sterilization [2]: None
Conclusion (sterilization stability) [2]: No changes, stable
Relevant substances after sterilization [2]: no impurities were found and no impurities are produced and None
time to dissolve to be clear in water by hand shaking [3]: 15 s
Forelimb left (%), 7 days after medication (MCAO rats [4]; 5 mg/kg iv qd 7 d): 18.57 ± 18.64%
Forelimb left (%), 14 days after medication (MCAO rats [4]; 5 mg/kg iv qd 7 d): 37.14 ± 30.39 %
Forelimb right (%), 7 days after medication (MCAO rats [4]; 5 mg/kg iv qd 7 d): 100 ± 0%
Forelimb right (%), 14 days after medication (MCAO rats [4]; 5 mg/kg iv qd 7 d): 100 ± 0%
Forelimb left (%), 7 days after medication (MCAO rats [4]; 10 mg/kg iv qd 7 d): 14.29 ± 18.13%
Forelimb left (%), 14 days after medication (MCAO rats [4]; 10 mg/kg iv qd 7 d): 38.57 ± 28.54 %
Forelimb right (%), 7 days after medication (MCAO rats [4]; 10 mg/kg iv qd 7 d): 100 ± 0%
Forelimb right (%), 14 days after medication (MCAO rats [4]; 10 mg/kg iv qd 7 d): 100 ± 0%
balance beam, 7 days after medication (MCAO rats [5]; [10]): 2.14 ± 0.9 min
balance beam, 14 days after medication (MCAO rats [5]; [10]): 4.29 ± 1.38 min
balance beam, 7 days after medication (MCAO rats [5]; 10 mg/kg iv qd 7 d (high dose)): 2.71 ± 1.25 min
balance beam, 14 days after medication (MCAO rats [5]; 10 mg/kg iv qd 7 d (high dose)): 4.29 ± 1.60 min
2 mg/ml pH value [1]: 5.47
10 mg/ml pH value [1]: 5.38
Improvement rate % of cerebral infarction range (MCAO rats [6]; 5 mg/kg iv qd 7 d): 46.5%
Infarct size (%) (MCAO rats [6]; 5 mg/kg iv qd 7 d): 13.13 ± 4.12 %
Improvement rate % of cerebral infarction range (MCAO rats [6]; 10 mg/kg iv qd 7 d): 43.4%
Infarct size (%) (MCAO rats [6]; 10 mg/kg iv qd 7 d): 13.90 ± 4.70 %

CCCc1nn(C)c2c(=O)[nH]c(-c3cc(S(=O)(=O)N4C[C@@H](C)N[C@@H](C)C4)ccc3OCC)nc12 [Aildenafil citrate]
Relevant substances before sterilization [2]: None
Conclusion (sterilization stability) [2]: No changes, stable
Relevant substances after sterilization [2]: no impurities were found and None
behavioral score, 3 days after medication ([7]; 3 days after medication): 6.9 ± 1.5
behavioral score, 7 days after medication ([7]; 7 days after medication): 5.5 ± 1.1
behavioral score, 14 days after medication ([7]; 14 days after medication): 4.3 ± 1.3
behavioral score, Before medication ([7]; before medication): 9.7 ± 0.5
2 mg/ml pH value [1]: 4.11
10 mg/ml pH value [1]: Insoluble
Total cerebral infarction % ([8]; 14 days after administration, x ± s, n = 10): 17.6 ± 7.7 %
Improvement rate % of cerebral infarction range ([8]; 14 days, versus model control group): 29.6%

CCCc1nn(C)c2c(=O)[nH]c(-c3cc(S(=O)(=O)N4C[C@@H](C)N[C@@H](C)C4)ccc3OCC)nc12 [Aildenafil D-tartrate]
2 mg/ml pH value ([1]; listed as D-tartrate): 3.84
10 mg/ml pH value ([1]; listed as D-tartrate): 3.58

CCCc1nn(C)c2c(=O)[nH]c(-c3cc(S(=O)(=O)N4C[C@@H](C)N[C@@H](C)C4)ccc3OCC)nc12.O=C(O)C(O)C(O)C(=O)O [Aildenafil L-tartrate, L-tartrate (1:1) of 1-[4-ethoxy-3-[5-(6,7-dihydro-1-methyl-7-oxy-3-n-propyl-1H-pyrazolo[4,3-d]pyrimidine)]benzenesulfonyl]-cis-3,5-dimethylpiperazine]
Relevant substances before sterilization [2]: None
Conclusion (sterilization stability) [2]: No changes, stable
Relevant substances after sterilization [2]: no impurities were found and None
Relevant substances after sterilization ([2]; listed as L-tartrate): no impurities are produced
time to dissolve to be clear in water by hand shaking [3]: 15 s
solubility ([3]; thermodynamic from solid, room temperature, read-out: Saturated Solubility in water at room temperature): ~50 mg/mL
2 mg/ml pH value [1]: 3.59
10 mg/ml pH value [1]: 3.56

CN1CC(=O)N2[C@H](c3ccc4c(c3)OCO4)c3[nH]c4ccccc4c3C[C@@H]2C1=O [Tadalafil]
Improvement rate % of cerebral infarction range (MCAO rats [9]; versus model control group): 14.2%
Total cerebral infarction % (MCAO rats [9]; x ± s, n = 20): 21.3 ± 6.5%
